Measurements published in patent US20200032271A1, “COMBINATION THERAPY WITH LIPOSOMAL ANTISENSE OLIGONUCLEOTIDES” (Bio-Path Holdings, Inc., priority 2016, published 2020).
Several values for one entry are separate records, joined by “and”; a condition that tells them apart may be missing. Equal values may be shown once. [PEt] = P-ethoxy (ethyl phosphotriester) internucleoside linkage

Assays:
CHO cells = experiment: In vitro mammalian chromosome aberration test; type: cell-based; conditions: non-activated and S9-activated
Protocol: BP1001 was tested in the chromosome aberration assay using CHO cells in both the absence and presence of an Aroclor-induced S9 activation system. A preliminary toxicity test was performed to establish the dose range for the chromosome aberration assay. The chromosome aberration assay was used to evaluate the clastogenic potential of the BP1001. Based on the findings of this study, BP1001 was concluded to be negative for the induction of structural and numerical chromosome aberrations in CHO cells in both the non-activated and the S9-activated test systems.

Grb2 = experiment: Selective inhibition of Grb2 protein production (SDS-PAGE, blot) in BV173 and ALL-1 cells; type: cell-based, human; conditions: 4 to 8 μM, three days, Crk1 as control protein
Protocol: FIGS. 5A-B. Selective inhibition of the production of Grb2 proteins. […] After three days of culture, protein-containing layers were prepared and subjected to SDS-PAGE and transferred to nitrocellulose membranes. Blots were cut into sections and incubated with antibodies specific for Grb2 (target) or Crk1 (control) protein. BP1001 is a neutral liposome incorporated with the nuclease-resistant, hydrophobic P-ethoxy antisense oligos targeted to Grb2 mRNA.

[1] = test system: 32Dp210 Bcr-Abl positive leukemia cells; experiment: Survival of mice injected with 32Dp210 Bcr-Abl positive leukemia cells, second study; type: in vivo
Protocol: In a second study in mice injected with 32Dp210 Bcr-Abl positive leukemia cells, treatment groups received BP1001 at 5, 10, or 15 mg/kg/dose administered intravenously beginning one day after injection of tumor cells, twice weekly for up to 7 weeks. Control groups received DOPC liposomes containing an oligonucleotide of random sequence (15 mg/kg/dose) on the same schedule. Mice were observed daily for moribundity/morbidity. Surviving mice in the control groups were euthanized on Day 41, and in the treatment groups on Day 48.

[2] = test system: peripheral blood and bone marrow blasts; experiment: Anti-leukemia activity in patients (peripheral blood and bone marrow blasts, response); type: in vivo, human; conditions: for Bone marrow blasts (%) Nadir / Bone marrow blasts (%) Off-Rx / Peripheral blood blasts (%) Off-Rx / Peripheral blood blasts (%) Nadir: individual evaluable patients
Protocol: Peripheral blood assessments were done at baseline (within 14 days of study start), and on days 1, 8, 15, 22, at completion of cycle one, and as clinically indicated. Bone marrow assessments were done at baseline (within 14 days of study start), at completion of cycle one, cycle 2, and as clinically indicated. Baseline cytogenetics data were obtained before treatment. Molecular analysis was conducted to detect somatic mutations on the baseline bone marrow.
BP1001, as a single agent therapy, decreased >50% peripheral blood blasts in 9 of 21 patients, and decreased >50% bone marrow blasts in 3 of 21 patients (Table 8). […] Four patients completed 2 cycles of treatment and three patients completed 5 cycles of treatment (Table 8). These seven patients had diverse cytogenetics and molecular abnormalities such as JAK2 and NRAS mutations (Table 8). […]

[3] = in vivo
Description: Each participant who receives study drug will be closely monitored for AEs. An AE is any untoward medical occurrence associated with the use of a drug in humans, whether or not considered drug related. Adverse events include any signs, symptoms, illnesses, or diagnoses that appear or worsen during the course of the study. An AE may be an intercurrent illness, an injury, or any concomitant impairment of the participant's health. All AEs occurring at any time from the time of consent through the end of treatment visit will be reported regardless of the etiology of the event. The NCI's CTCAE v4.03 will be used for grading AEs.
The causal relationship to BP1001 IP or Das for all AEs will be assessed as follows: (1) definitely related—AEs clearly attributable to study regimen administration; (2) probably related—AEs for which there is a reasonable possibility of causal association to study regimen; (3) possibly related—AEs for which there is confounding by comorbidities, medications or other considerations but for which it is not unreasonable that the AE may have been caused by study regimen; or (4) not related—AEs that are considered clearly not causally related to study regimen, or for which there is a clear alternative explanation

[4] = Single-dose toxicity study in mice; conditions: mouse
Protocol: Fifteen female ICR mice (5/group) were assigned to a non-injected control group (Group IV) and two treatment groups (Groups V and VI) to receive 20 and 40 mg oligo/kg, respectively, intravenously via the tail vein as a single injection. Animals were observed daily and blood was collected for hematology and clinical chemistry evaluations at two and six weeks post injection. Animals were sacrificed following blood collection at six weeks post-injection and tissues collected for gross and microscopic evaluations of organ toxicity.

[5] = Multiple-dose toxicity study in mice; conditions: mouse
[6] = test system: five strains of Salmonella; experiment: Ames mutagenicity study; type: cell-based; conditions: presence and absence of S-9
Protocol: BP1001 was tested in an Ames mutagenicity study. Sodium chloride (0.9%) was added to vials of BP1001 containing 5 mg of Grb2 oligonucleotide. The sample was tested against five strains of Salmonella in various concentrations in the presence and absence of the S-9 enzyme activation system. The sample was not mutagenic to the strains tested.

[7] = test system: HL60 (Ph-negative, Bcr-Abl negative); experiment: Inhibition of proliferation of leukemic cell lines by BP1001; type: cell-based, human; conditions: [BP1001] 0-12 μM, 5 days
Description: (§1) BP1001 is a neutral liposome incorporated with the nuclease-resistant, hydrophobic P-ethoxy antisense oligos targeted to Grb2 mRNA. In preclinical studies, BP1001 was effective in inducing growth inhibition and decreasing ERK1,2 and Akt phosphorylation in imatinib-sensitive and imatinib-resistant CML cell lines.

BV173 = experiment: as above; type: cell-based, human; conditions: 5 days
Description: as §1

ALL-1 = experiment: as above; type: cell-based, human; conditions: 5 days
Description: as §1

K562 = experiment: as above; type: cell-based, human; conditions: 4 days
Description: as §1

[8] = 15 mg/kg/dose i.v. twice weekly
[9] = of 21 evaluable patients, single agent
[10] = 15 and 25 mg oligo/kg i.v. daily for five days

For “BP1001: liposome-incorporated P-ethoxy antisense oligodeoxynucleotide (5′-ATATTTGGCGATGGCTTC-3′, SEQ ID NO: 1) specific to grb2 mRNA, in neutral DOPC liposomes (DNA, all [PEt], methylation of C not given here; incorporated in neutral DOPC liposomes)”, the “induction of structural and numerical chromosome aberrations” value (CHO cells) was “negative”, the Grb2 protein production (Grb2) was “selectively inhibit Grb2 protein production” and the Mean survival duration ([1]; 5 mg/kg/dose i.v. twice weekly) was 20.8 ± 4.7 days. The Mean survival duration ([1]; 10 mg/kg/dose i.v. twice weekly) was 22.2 ± 8.7 days, the Mean survival duration [1, 8] was 44.2 ± 8.5 days and the “mice surviving to 48 days (end of study)” value [1, 8] was 80%. For the same substance, the “Bone marrow blasts (%) Nadir” value ([2]; 5 mg/m^2, no Ara-C) was 10% and 4%, the “Bone marrow blasts (%) Off-Rx” value ([2]; 5 mg/m^2, no Ara-C) was 10% and 6% and the “Peripheral blood blasts (%) Off-Rx” value ([2]; 5 mg/m^2, no Ara-C) was 1% and 50% and 21% and 97% and 5% and 0%. The “Bone marrow blasts (%) Nadir” value ([2]; 10 mg/m^2, no Ara-C) was 76% and None and 38%, the “Bone marrow blasts (%) Off-Rx” value ([2]; 10 mg/m^2, no Ara-C) was 76% and 80% and 38% and the “Peripheral blood blasts (%) Nadir” value ([2]; 10 mg/m^2, no Ara-C) was 31% and 5% and 43%. For the same substance, the “Peripheral blood blasts (%) Off-Rx” value ([2]; 10 mg/m^2, no Ara-C) was 72% and 63% and 74%, the “Bone marrow blasts (%) Nadir” value ([2]; 20 mg/m^2, no Ara-C) was 3% and the “Peripheral blood blasts (%) Nadir” value ([2]; 20 mg/m^2, no Ara-C) was 0%. For the same substance, the “Peripheral blood blasts (%) Off-Rx” value ([2]; 20 mg/m^2, no Ara-C) was 1% and 0%, the “Bone marrow blasts (%) Nadir” value ([2]; 40 mg/m^2, no Ara-C) was “None (2×) and 54%” and the “Bone marrow blasts (%) Off-Rx” value ([2]; 40 mg/m^2, no Ara-C) was 36% and 80%. For the same substance, the “Peripheral blood blasts (%) Nadir” value ([2]; 40 mg/m^2, no Ara-C) was 3% and None (2×), the “Peripheral blood blasts (%) Off-Rx” value ([2]; 40 mg/m^2, no Ara-C) was 19% and 80% and 97% and the “Bone marrow blasts (%) Nadir” value ([2]; 60 mg/m^2, no Ara-C) was 88% and None. The “Bone marrow blasts (%) Off-Rx” value ([2]; 60 mg/m^2, no Ara-C) was 88% and 92%, the “Peripheral blood blasts (%) Nadir” value ([2]; 60 mg/m^2, no Ara-C) was 93% and 7% and 17% and the “Peripheral blood blasts (%) Off-Rx” value ([2]; 60 mg/m^2, no Ara-C) was 98% and 24% and 82%. For the same substance, the “Bone marrow blasts (%) Nadir” value ([2]; 90 mg/m^2, no Ara-C) was “None and 22%”, the “Bone marrow blasts (%) Off-Rx” value ([2]; 90 mg/m^2, no Ara-C) was 17% and 22% and the “Peripheral blood blasts (%) Nadir” value ([2]; 90 mg/m^2, no Ara-C) was 0% and None (2×). For the same substance, the “Peripheral blood blasts (%) Off-Rx” value ([2]; 90 mg/m^2, no Ara-C) was 0% and 42% and 92%, the “Peripheral blood blasts (%) Nadir” value ([2]; BP1001 5 mg/m^2, no Ara-C) was 0% (2×) and 7% and 5% and 82% and 2% and the “patients with improvement of leukemia cutis” value [2, 9] was “two”. For the same substance, the “patients with transient decline in blasts” value [2, 9] was “six”, the “patients with ≥50% reduction in peripheral or bone marrow blasts” value ([2]; of 21 evaluable patients, single agent (Part A)) was 10 and the “peripheral blasts after four BP1001 infusions” value ([2]; one CML blast crisis patient with T315I, from 81%) was 5%. For the same substance, the “patients with >50% decrease of bone marrow blasts” value ([2]; single agent therapy) was 3 of 21, the “patients with >50% decrease of peripheral blood blasts” value ([2]; single agent therapy) was 9 of 21 and the “Infections and infestations ≥Grade 3, total events” value [3] was “(9/9)”. For the same substance, the “Infections and infestations ≥Grade 3, total patients” value [3] was “(9/9)”, the “WBC counts at six weeks post-injection” value ([4]; single i.v. 30 mg oligo/kg) was “Recovery” and the “group average WBC count at six weeks” value ([4]; single i.v. 40 mg oligo/kg, not statistically different than control) was “not fully recovered”. For the same substance, the morbidity or mortality ([4]; single i.v. 15-40 mg oligo/kg, six weeks observation) was “No signs of morbidity or mortality”, the “drug-related lesions in examined organs” value ([4]; single i.v. 15-40 mg/kg) was “no drug-related lesions” and the “WBC count at two weeks post-injection” value ([4]; single i.v. 30 and 40 mg oligo/kg) was “Reduction”. The “WBC counts at two weeks post-injection, persisting at six weeks” value [5, 10] was “Reduction”, the morbidity or mortality [5, 10] was “No signs of morbidity or mortality” and the “drug-related lesions in examined organs” value ([5]; multiple i.v. 15-25 mg/kg) was “no drug-related lesions”. For the same substance, the mutagenicity [6] was “not mutagenic”, the Decrease in viability [7] was 0% and the IC50 (BV173) was 8 µM. The Decrease in viability (BV173; [BP1001] 0-10 μM) was 70%, the IC50 (ALL-1) was 4 µM and the Decrease in viability (ALL-1; [BP1001] 0-6 μM) was 100%. For the same substance, the IC50 (K562) was 8 µM and the Decrease in viability (K562; [BP1001] 0-12 μM) was 80%.
